Test system: L1210, A549 and HRTEC nuclei
Test: DNA fragmentation in isolated nuclei
Format: cell-based
Conditions: L1210 and A549 nuclei incubated with Ca2+ inhibitors
Experimental: Nuclei were purified from L1210, A549 and HRTEC cells and incubated with low concentrations of MAL (0.2 and 0.4 mg/ml). The formation of HMW and oligonucleosome length DNA fragments was examined.
A549, L1210 and HRTEC nuclei were isolated from homogenised cells. Pellet 1 from the homogenisation was washed twice in nuclei buffer for 20 min at 100×g and suspended in nuclei buffer for experiments. Rat liver nuclei was isolated.
A549, L1210 or HRTEC nuclei in suspension were placed in individual wells in a 24-well plate ([…]), mixed with MAL, α-lactalbumin, lactoferrin or BSA (100 μl in nucleus buffer), incubated at 37° C. for 1 hour (L1210,) or 2 hours (A549 and HRTEC), harvested by aspiration, analysed for DNA fragmentation as described above.

Structure (SMILES) | effect on MAL induced DNA fragmentation
CC(=O)OCOC(=O)CN(CC(=O)OCOC(C)=O)c1ccccc1OCCOc1ccccc1N(CC(=O)OCOC(C)=O)CC(=O)OCOC(C)=O [BAPTA/AM, reference compound] | completely blocked the DNA fragmentation
O=C(O)CN(CCN(CC(=O)O)CC(=O)O)CC(=O)O [EDTA, reference compound] | completely blocked the DNA fragmentation
